# Reference: patent publication US20210345614A1, “APPLICATION OF 7-CARBOXYBENZO[1,2,3]THIADIAZOLE AMIDES AS PLANT STIMULANTS” (ADAM MICKIEWICZ UNIVERSITY FOUNDATION, priority 2015, published 2021)
# Legend:
# [1] = test system: tobacco mosaic virus (TMV); assay: BTHWA effect on the infectivity of tobacco mosaic virus (virus pre-incubated with compound, necrotic spots on tobacco leaves); type: in vivo, tobacco cv. xanthi; settings: TMV approx. 3 μg/ml incubated 30 min with BTHWA 40 mg/L 1:1; after 5 days
# Protocol: (§1) Purified tobacco mosaic virus (TMV) at a concentration of approx. 3 μg/ml was mixed with N-methyl-N-methoxy-7-carboxybenzo[1,2,3]thiadiazole amide (BTHWA) formulation (concentration 40 mg/L) in a 1:1 volume ratio and incubated for 30 min at room temperature (treated leaves). The control was TMV incubated in water. Both virus suspensions were used to mechanically infect tobacco leaves cv. xanthi. Local necrotic spots (hypersensitivity, local infection) produced on the tobacco leaves were measured.
# [2] = test system: powdery mildew fungi; assay: BTHWA effect on the infectivity of fungi, growth in nutrition medium; type: cell-based; settings: BTHWA 40 mg/L formulation, after 2 days
# Protocol: as §1
# The procedure as described in Example 1 was followed, however, a powdery mildew fungi was used, which was then incubated in a nutrition medium.
# [3] = test system: tobacco mosaic virus (TMV); assay: TMV-tobacco cv. xanthi model, protection against biotic stress (necrotic spots); type: in vivo, Nicotiana tabacum cv. xanthi; settings: for Resistance induction [%] (Reduction of necrotic spots related to control): evaluated after another 4 days
# Protocol: Tobacco plants (Nicotiana tabacum) cv. xanthi at the stage of three developed leaves was watered (i.e. applied to the roots) twice with BTHWA solution of 10 mg/L, in one-week intervals. Control tobacco plants were irrigated with water only. […] To assess the biological effectiveness in protecting plants against biotic stress, the TMV-tobacco cv. xanthi model was used. This pathogen-plant model includes determining the hypersensitivity interaction phenomena with formation of necrotic spots which are quantifiable.
# Tobacco plants (Nicotiana tabacum) cv. xanthi at the stage of three developed leaves were sprayed once with BION™ or BTHWA solutions at a concentration of 20 mg/L. A week later, the plants were mechanically infected with TMV virus by repeatedly rubbing the leaves with carborundum steeped in a suspension of the purified virus at the concentration of approx. 2 μg/ml. The level of protection against biotic stress was assessed by comparing the number of necrotic spots caused by TMV on the leaves of plants treated by BTHWA or BION™ and compared to the control (plant sprayed with water only).
# Reduction of the amount of necrotic spots indicates protection against influence of the biotic factor on the plant.
# The procedure as described in Example 4 was followed, however, the treated and control plants were divided into three batches and their leaves were inoculated with a virus, respectively after 1, 2, and 3 weeks past the last treatment with BTHWA or water only.
# After six days, plants treated with a solution of the working fluid at a BTHWA concentration <100 mg/L were inoculated with tobacco mosaic virus (TMV) in order to determine the degree of induction of resistance caused by the formulation. After another 4 days of infection by TMV, the level of infection was evaluated by determining the number and size of necrotic spot caused by viral disease oi the plant leaves relative to the control.
# Research on the durability of the induced resistance effect on the model of tobacco plants against TMV virus was performed. […] The group of plants were then infected with the virus after 1, 3, 6, 10, 15, 20, 25 and 30 days (Table 3).
# [4] = test system: Pseudomonas syringe pv. tomato; assay: Protection of tobacco against bacterial infection of Pseudomonas syringe pv. tomato; type: in vivo, Nicotiana tabacum cv. xanthi
# Protocol: Tobacco plants at the 3 developed leaves stage were watered (applied at the roots) twice in weekly intervals with BTHWA solution at a concentration of 20 mg/L. Control tobacco plants were irrigated with water only. One week after the second treatment, a Pseudomonas syringe pv. tomato bacterial suspension, at a concentration of 10^5 CFU/cm^3 was transferred to the leaf by using an insulin syringe (without a needle). The bacterial suspension was prepared from two-day syringe pv. tomato culture on a solid medium. Protection against biotic stress was evaluated based on the amount of bacterial growth in the leaves at the point of introduction followed by the formation of necrotic spots, and this was compared with the control. […] The procedure as described in Example 12 was followed, however, the effectiveness of BTHWA in protecting plants against biotic stress was tested against the bacterial cell concentration raised to approx. 10^6 […].
# [5] = test system: Pseudomonas syringe pv. tomato; assay: Protection of tomato against bacterial infection of Pseudomonas syringe pv. tomato; type: in vivo, Tomato Lycopersicon esculentum Mill; settings: sprayed twice, 20 mg/L
# Protocol: Tomato plants in the phase of first pair of developed true leaves were watered twice with BTHWA at a concentration of 20 mg/L, at a weekly interval. Control tomato plants were treated with water only. One week after the second treatment Pseudomonas syringe pv. tomato bacterial suspension at a concentration of 10^5 CFU/cm^3 was introduced to the leaf using an insulin syringe (without a needle). Bacterial suspension was prepared from two-day Pseudomonas syringe pv. tomato culture on solid medium. Protection against biotic stress was evaluated based on the amount of bacterial growth in the leaves at the point of introduction followed by the formation of necrotic spots, and this compared with the control. […] The procedure as described in Example 16 was followed, however, the plants were sprayed. BTHWA at the concentration of 20 mg/L was applied twice by spraying.
# [6] = test system: Radish seeds; assay: Germination of radish seeds; type: in vivo; settings: seeds in 10 mg/L solution, after 2 days
# Protocol: Radish seeds were placed in water-containing solution of BTHWA at a concentration of 10 mg/L or water only (control samples).
# [7] = test system: Tobacco plants (Nicotiana tabacum) var. xanthi; assay: Protection against abiotic stress in tobacco caused by herbicide (glyphosate); type: in vivo; settings: watered twice 20 mg/l; glyphosate 0.005% aqueous solution; 10 days after herbicide application
# Protocol: Tobacco plants (Nicotiana tabacum) var. […] stage of 3 developed leaves were watered twice with solution of BTHWA at concentration of 20 mg/l, at a weekly interval. Control […] plants were treated with water only.
# [8] = watered once with 100 ml of 20 mg/L
structure (smiles),measurement,setting,value
"CON(C)C(=O)c1cccc2nnsc12 [BTHWA, N-methyl-N-methoxy-7-carboxybenzo[1,2,3]thiadiazole amide]",difference in number of necrotic spots between control and treated leaves,[1],12%
same,differences in fungal growth on the treated plates and control,[2],< 5%
same,Resistance induction [%] (Reduction of necrotic spots related to control),"[3]; spray 5 mg/L, TMV inoculation after six days",85%
same,Resistance induction [%] (Reduction of necrotic spots related to control),"[3]; spray 10 mg/L, TMV inoculation after six days",97%
same,Resistance induction [%] (Reduction of necrotic spots related to control),"[3]; spray 20 mg/L, TMV inoculation after six days",97%
same,Resistance induction [%] (Reduction of necrotic spots related to control),"[3]; spray 50 mg/L, TMV inoculation after six days",98%
same,lowest possible concentration at which the efficiency is maintained at greater than 90%,"[3]; spray, TMV inoculation after six days",10 mg/L
same,effectiveness in preventing biotic stress compared with BION,"[3]; sprayed once, 20 mg/L",more effective in preventing the occurrence of biotic stress
same,Average number of the local necrotic spots per leaf,"[3]; sprayed once, 20 mg/L, TMV infection a week later",0
same,Reduction of necrotic spots [%],"[3]; sprayed once, 20 mg/L, TMV infection a week later, vs control",100%
same,persistence of the resistance effect after a single application,[3]; [8],up to 25 days
same,time to activation of resistance after application,[3]; [8],after at least three days
same,% of induction (reduction of necrotic spots related to control),"[3]; watered once with 100 ml of 20 mg/L, virus inoculation 1 day after application",<10%
same,% of induction (reduction of necrotic spots related to control),"[3]; watered once with 100 ml of 20 mg/L, virus inoculation 3 days after application",10-20%
same,% of induction (reduction of necrotic spots related to control),"[3]; watered once with 100 ml of 20 mg/L, virus inoculation 6 days after application",94%
same,% of induction (reduction of necrotic spots related to control),"[3]; watered once with 100 ml of 20 mg/L, virus inoculation 10 days after application",96%
same,% of induction (reduction of necrotic spots related to control),"[3]; watered once with 100 ml of 20 mg/L, virus inoculation 15 days after application",95%
same,% of induction (reduction of necrotic spots related to control),"[3]; watered once with 100 ml of 20 mg/L, virus inoculation 20 days after application",95%
same,% of induction (reduction of necrotic spots related to control),"[3]; watered once with 100 ml of 20 mg/L, virus inoculation 25 days after application",91%
same,% of induction (reduction of necrotic spots related to control),"[3]; watered once with 100 ml of 20 mg/L, virus inoculation 30 days after application",85%
same,protection against biotic stress (number of necrotic spots vs control),"[3]; watered twice with 10 mg/L at one-week intervals, TMV infection a week after second treatment",restricts the influence of biotic factor
same,durability of protection against TMV biotic stress,"[3]; watering 10 mg/L twice, inoculation 1, 2 and 3 weeks after last treatment",effective after three weeks
same,protection against the effects of bacterial infection,"[4]; 10 mg/L, applied by watering or spraying",completely protecting the treated plants from the effects of bacterial infection
same,protection against the effects of bacterial infection,"[4]; sprayed twice at weekly intervals, 20 mg/L",fully protects the plants against the effects of bacterial infection
same,bacterial infection and formation of necrotic spots,"[4]; watered twice at weekly intervals, 20 mg/L, bacteria 10^5 CFU/cm^3",these effects were not observed
same,local necrotic spots at elevated bacterial cell concentration,"[4]; watering as in Example 12, bacteria approx. 10^6 CFU/cm",no local necrotic spots were observed
same,protection against the effects of bacterial infection,[5],fully protecting plants against the effects of bacterial infection
same,increase of the mass of the germ in comparison to control,[6],5%
same,lesser negative effect of the herbicide compared to the control,[7],26%
